Experimental data taken from ChEMBL document CHEMBL1201862, “PubChem BioAssay data set” (2004).
Calls of active or inactive are those of the source.

Assays:
HeLa = test: viability loss in HeLa cells – cell-based, ATP luminescence, cherry-pick samples, cytotoxicity control, dose response (AID 687004); type: functional; settings: Homo sapiens
[1] = viability loss of HMLE_sh_eGFP cells – cell-based, luminescence, counter-screen for HMLE_sh_ECad selective toxicity project, dose response (AID 463074); type: functional, Homo sapiens;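 also: HMLE human mammary epithelial cells expressing control shRNA against eGFP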
[2] = Luminescence Cell-Based Dose Retest to Confirm Inhibitors of Cancer Stem Cells. [Related pubchem assays (depositor defined):AID2717, AID2721]; type: functional; settings: Homo sapiens
[3] = molecular target: T1, Probable nicotinate-nucleotide adenylyltransferase (Staphylococcus aureus (strain N315), UniProt P65502); type: functional, Staphylococcus aureus subsp. aureus N315; settings: read-out: IC50_Mean;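 as to IC50 Mean: confirmatory dose-response retesting of NadD inhibitor hits first found in an ultra-high-throughput screen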
[4] = molecular target: T1, Probable nicotinate-nucleotide adenylyltransferase; type: functional, Staphylococcus aureus subsp. aureus N315
Albumin = Albumin (Bos taurus, UniProt P02769); test: Counterscreen for inhibitors of T-cell receptor (TCR)-CD3 interaction: Fluorescence-based biochemical high throughput dose response assay to identify inhibitors of T-cell receptor (TCR)-CD3 interaction using a TAMRA-labeled BSA probe.; type: functional
[5] = general mammalian cell viability loss – inhibitor set, cherry-pick, set 2, cytotoxicity control for miR-122 modulator project, dose response (AID 720697); type: functional, cell-based
[6] = molecular target: T2, Carboxy-terminal domain RNA polymerase II polypeptide A small phosphatase 1 (Homo sapiens, UniProt Q9GZU7); test: CTDSP1 inhibitors, concentration-response, biochemical, absorbance readout, ultra-high-throughput screen actives (AID 540297); type: functional
T2 sequence (Q9GZU7 whole entry): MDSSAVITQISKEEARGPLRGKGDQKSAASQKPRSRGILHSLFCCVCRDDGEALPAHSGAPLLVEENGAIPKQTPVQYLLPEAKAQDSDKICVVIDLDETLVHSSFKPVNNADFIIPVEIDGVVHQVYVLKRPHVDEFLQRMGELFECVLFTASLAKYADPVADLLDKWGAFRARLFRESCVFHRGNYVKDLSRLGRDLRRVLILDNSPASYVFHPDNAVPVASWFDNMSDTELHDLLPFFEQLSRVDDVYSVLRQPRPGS

[7] = molecular target: T3, Low molecular weight phosphotyrosine protein phosphatase (Homo sapiens, UniProt P24666); type: functional; settings: read-out: IC50_Mean
T3 sequence (P24666 whole entry): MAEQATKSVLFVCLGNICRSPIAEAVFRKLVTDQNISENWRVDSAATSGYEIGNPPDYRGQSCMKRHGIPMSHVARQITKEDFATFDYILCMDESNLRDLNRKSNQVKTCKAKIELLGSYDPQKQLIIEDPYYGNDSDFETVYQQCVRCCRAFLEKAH

[8] = molecular target: T3, Low molecular weight phosphotyrosine protein phosphatase; type: functional; settings: read-out: IC50_Mean; remark: listed apart in the source
Interleukin-8 = molecular target: T4, Interleukin-8 (Homo sapiens, UniProt P10145); test: Dose Response confirmation of uHTS small molecule hits for cystic fibrosis induced NFkb Inhibitors in a PAF-induced IL8 counterscreen.; type: functional; settings: read-out: IC50_Mean
T4 sequence (P10145 whole entry): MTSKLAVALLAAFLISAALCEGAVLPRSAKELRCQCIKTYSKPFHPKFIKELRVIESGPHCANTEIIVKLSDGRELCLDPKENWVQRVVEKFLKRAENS

[9] = molecular target: Heat shock protein HSP 90-alpha (Homo sapiens, UniProt P07900); type: functional, organism-based
[10] = T. cruzi growth inhibition in host cells, dose response, cell-based, plate reader, dry powder, set 2 (AID 652275); type: functional
Mu-type opioid receptor = Mu-type opioid receptor (Homo sapiens, UniProt P35372); type: functional, cell-based;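 also: U2OS cells with beta-arrestin recruitment to OPRM1 by beta-gal complementation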
[11] = molecular target: 5-hydroxytryptamine receptor 2A (Mus musculus, UniProt P35363); type: functional, cell-based;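 also: CHO-K1 cells with tagged receptor and beta-arrestin; agonist potency measured as compound-induced activation of the receptor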
Protein Wnt-3a = Protein Wnt-3a (Mus musculus, UniProt P27467); test: SAR analysis of small molecule antagonists of Gli-SUFU in a Wnt3a luminescent reporter assay.; type: functional
[12] = A2780 cell killing – plate reader, dry powder samples, cytotoxicity control, dose response (AID 743046); type: functional, cell-based
[13] = OVCAR8 cell viability loss – plate reader, dry powder samples, PAX8 project, dose response (AID 743197); type: functional, cell-based; settings: OVCAR-8
[14] = general cell-killing toxicity readout – plate reader, dry powder samples, cytotoxicity control for PAX8 inhibitor project, dose response (AID 743021); type: functional, cell-based
[15] = OVCAR-3 cell viability loss – plate reader, dry powder samples, PAX8 inhibitor project, dose response (AID 743044); type: functional, cell-based
Paired box protein Pax-8 = Paired box protein Pax-8 (Homo sapiens, UniProt Q06710); test: PAX8 transcriptional activity inhibition in RMG-I – RMG-I cells, luciferase, cherry-pick, dose response (AID 687027); type: functional, cell-based;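 also: luciferase reporter driven by Pax8 target thyroperoxidase promoter measured by SteadyGlo luminescence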
[16] = molecular target: 1-phosphatidylinositol 4,5-bisphosphate phosphodiesterase beta-3 (Homo sapiens, UniProt Q01970); test: Fluorescence-based biochemical high throughput dose response assay to identify inhibitors of phospholipase C isozymes (PLC-B3).
[17] = molecular target: 1-phosphatidylinositol 4,5-bisphosphate phosphodiesterase gamma-1 (Homo sapiens, UniProt P19174); test: Counterscreen for inhibitors of phospholipase C isozymes (PLC-B3): Fluorescence-based biochemical high throughput dose response assay to identify inhibitors of phospholipase C isozymes (PLC-gamma1).
[18] = NIH3T3 cell viability loss – ATP luminescence, mouse fibroblasts, counter-screen, dose response (AID 2010); type: functional, cell-based;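 also: cells exposed to compound for about 90 hours before reading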
cells [19] = type: functional, cell-based; settings: HEK-CNG
Galanin receptor type 3 = Galanin receptor type 3 (Homo sapiens, UniProt O60755); test: Fluorescence-based cell-based primary high throughput dose response assay to identify antagonists of the Galanin Receptor 3 (GalR3).; type: functional
[20] = Trypanosoma cruzi growth suppression in host cells – NIH3T3 host cells, beta-gal luminescence, confirmation (AID 2044); type: functional, cell-based;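 also: intracellular parasites grown in NIH/3T3 mouse fibroblasts as host cells; luminescent beta-galactosidase reporter signal from transgenic T. cruzi replicating inside host cells; inhibitors lower the luminescence signal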
[21] = molecular target: FAD-linked sulfhydryl oxidase ALR (Homo sapiens, UniProt P55789); test: ALR-catalysed DTT oxidation blockers – biochemical, H2O2 detection, luminescence, cherry-pick, dose response (AID 493248)
[22] = molecular target: DNA (cytosine-5)-methyltransferase 1 (Homo sapiens, UniProt P26358); test: inhibition of DNA methylation by DNMT1 – biochemical, fluorescent molecular beacon, confirmation (AID 602386); type: functional
Large T antigen = Large T antigen (Simian virus 40, UniProt P03070); type: functional, Betapolyomavirus macacae;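 also: Confirmatory-stage PubChem screen for compounds that inhibit SV40 T antigen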
Genome polyprotein = Genome polyprotein (dengue virus type 2, UniProt P29990); test: flavivirus cap methylation enzyme inhibition – biochemical, confirmation dose response, primary screen (AID 588689); type: functional
[23] = molecular target: T5, COUP transcription factor 2 (Homo sapiens, UniProt P24468); test: Luminescence-based cell-based high throughput dose response assay to identify inhibitors of COUP-TFII (NR2F2).; type: functional;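 also: HEK293 cells transiently cotransfected with COUP-TFII expression vector and reporter; luciferase reporter luminescence driven by COUP-TFII from the pX2-168 reporter plasmid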
T5 sequence (P24468 whole entry): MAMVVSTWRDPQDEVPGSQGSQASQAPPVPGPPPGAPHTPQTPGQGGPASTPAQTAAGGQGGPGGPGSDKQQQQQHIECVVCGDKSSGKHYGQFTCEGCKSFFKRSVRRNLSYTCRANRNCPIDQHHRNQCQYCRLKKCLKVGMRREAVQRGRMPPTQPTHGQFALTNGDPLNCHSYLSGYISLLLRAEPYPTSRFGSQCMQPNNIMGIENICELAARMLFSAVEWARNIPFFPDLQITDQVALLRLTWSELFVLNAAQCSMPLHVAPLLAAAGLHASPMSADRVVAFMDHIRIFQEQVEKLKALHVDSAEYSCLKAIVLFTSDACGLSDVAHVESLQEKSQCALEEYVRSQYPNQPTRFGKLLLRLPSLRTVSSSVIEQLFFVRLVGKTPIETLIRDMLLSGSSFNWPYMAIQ

Cytochrome P450 2C9 = Cytochrome P450 2C9 (Homo sapiens, UniProt P11712)
cells [24] = test: cells
Major prion protein = Major prion protein (Homo sapiens, UniProt P04156); type: functional, cell-based
Caspase-6 = Caspase-6 (Homo sapiens, UniProt P55212); test: inhibition of CASP6 peptide cleavage – biochemical, VEID-R110 fluorescence, cherry-pick, dose response (AID 720632)
[25] = molecular target: T6, Sentrin-specific protease 8 (Homo sapiens, UniProt Q96LD8); type: functional;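 also: kinetic enzyme assay of SENP8 cleaving a Nedd8 protein substrate, dose-response confirmation of screening hits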
T6 sequence (Q96LD8 whole entry): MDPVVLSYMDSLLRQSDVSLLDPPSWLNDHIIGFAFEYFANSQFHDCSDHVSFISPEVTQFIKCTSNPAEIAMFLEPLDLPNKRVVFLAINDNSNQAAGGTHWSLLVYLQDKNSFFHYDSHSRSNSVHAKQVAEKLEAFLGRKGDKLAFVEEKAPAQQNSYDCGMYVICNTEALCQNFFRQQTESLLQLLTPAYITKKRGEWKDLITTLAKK

## C[C@@H]1CCCCO[C@H](CN(C)Cc2ccc3c(c2)OCO3)[C@H](C)CN([C@H](C)CO)C(=O)c2cc(NC(=O)Nc3cccc4ccccc34)ccc2O1
HeLa
  AC50: 20.1 µM (active)

## COc1cc(/C=c2\sc3n(c2=O)C(c2ccccc2)C(c2ccccc2)=NN=3)ccc1O (centres undefined)
[1]
  AC50: 38.5 µM (active)
[2]
  AC50: 4.58 µM (active)
[3]
  IC50: 57.3 µM (active)
[4]
  IC50: 19.7 µM (active)

## C=CCn1c(O)c(N=NC(=O)CNC(=O)/C=C/c2ccco2)c2ccccc21
Albumin
  IC50: > 94.1 µM (inactive)

## CN(C(=O)C12CC3CC(CC(C3)C1)C2)C1CCS(=O)(=O)C1 (centres undefined)
[5]
  AC50: 1.42 µM (active)

## O=C(Nc1nc2ccsc2c(=O)s1)c1ccc(F)cc1
[6]
  IC50: 5.11 µM (active)
[7]
  IC50: 32 µM (inactive)
[8]
  IC50: 11 µM (active)

## Cc1ccc(-c2onc3ccc(C(=O)/C=C/N(C)C)cc23)cc1
Interleukin-8
  IC50: 17.9 µM (inactive)
[9]
  AC50: 4.11 µM (active)

## Cc1ccc(-n2ncc3c(SCC(N)=O)ncnc32)cc1C
HeLa
  AC50: > 52 µM (inactive)

## CC(C)N1CC2(CN(CCc3ccccc3)C2)Oc2c(NC(=O)c3ccncc3)cccc2C1=O
[10]
  AC50: 0.252 µM (active)

## Fc1ccc(F)c(CN2CCN(c3ncccn3)CC2)c1
Mu-type opioid receptor
  EC50: 92.4 µM (inactive)
[11]
  EC50: 0.323 µM (active)

## O=C(Nc1cc(N2CCCCC2)ncn1)c1cccs1
Protein Wnt-3a
  IC50: > 21.8 µM (inactive)

## CC(C)(C)Nc1cc(NC(=O)c2ccccc2)ncn1
Protein Wnt-3a
  IC50: > 21.8 µM (inactive)

## COc1ccccc1C#Cc1ccc([C@H]2[C@H](C#N)N(C(=O)C3CC3)[C@H]2CO)cc1
[12]
  AC50: 0.698 µM (active)
[13]
  AC50: 10.7 µM (active)
[14]
  AC50: 1.68 µM (active)
[15]
  AC50: 15.1 µM (active)
Paired box protein Pax-8
  AC50: 6.37 µM (active)

## Cc1c(/N=C(\S)N/N=C/C=C/c2ccc([N+](=O)[O-])cc2)c(=O)n(-c2ccccc2)n1C
[16]
  IC50: > 123 µM (inactive)
[17]
  IC50: > 123 µM (inactive)

## O=C(CN1CCC(c2nc3ccccc3s2)CC1)NCc1cccs1
[18]
  EC50: > 30 µM (not active)
Cells [19]
  EC50: > 29.9 µM (inactive)
Galanin receptor type 3
  IC50: 1.39 µM (active)
[20]
  EC50: 0.646 µM (active)

## COc1ccc(CCN(C)C(=O)CN2C(=O)NC3(CCCc4ccccc43)C2=O)cc1OC (centres undefined)
[16]
  IC50: > 122 µM (inactive)
[17]
  IC50: > 122 µM (inactive)

## CNC(=S)NNC(=O)c1cccn(Cc2ccccc2)c1=O
Albumin
  IC50: > 94.2 µM (inactive)

## CC(C)N1C[C@H](CN(C)Cc2ccc(Cl)cc2)Oc2c(NC(=O)c3ccncc3)cccc2C1=O
[10]
  AC50: 0.00393 µM (active)

## O=C1NN(c2ccccc2)C(=O)/C1=C/c1ccc(-c2ccc(C(=O)O)cc2)o1
[21]
  AC50: 0.11 µM (active)
[22]
  IC50: 10.2 µM (active)
[6]
  IC50: 4.57 µM (active)
Large T antigen
  IC50: 20.6 µM (active)
Genome polyprotein
  IC50: > 100 µM (active)

## Cc1ccc(NC(=S)N(CCCN2CCOCC2)Cc2ccccn2)cc1
[14]
  AC50: 50.9 µM (active)

## NC(=O)c1nnn(Cc2cc(Cl)c(C(=O)c3ccc(Cl)cc3)c(Cl)c2)c1N [CARBOXYAMIDOTRIAZOLE]
Cells [19]
  EC50: > 29.9 µM (inactive)
Galanin receptor type 3
  IC50: 0.303 µM (active)
[23]
  IC50: 9.21 µM (active)
Cytochrome P450 2C9
  AC50: inconclusive

## CCOc1cc(C2Nc3ccccc3C(=O)N2c2ccccc2)c(Br)cc1OCC(=O)O (centres undefined)
Cells [24]
  IC50: > 138 µM (inactive)
Major prion protein
  IC50: 10.1 µM (inactive)

## CC(C)c1nc(SCC(=O)Nc2nccs2)c2ccccc2n1
Cells [24]
  IC50: > 138 µM (inactive)
Major prion protein
  IC50: 2.4 µM (active)

## O=[N+]([O-])c1cc(F)c2cccnc2c1O
Caspase-6
  AC50: 14.3 µM (active)
[25]
  IC50: 12 µM (active)

## O=C1NC[C@H](Cc2ccccc2)N(C[C@H]2CCCN2C[C@H](Cc2ccccc2)N2C[C@H](Cc3ccc(O)cc3)N(CC3CCCCCC3)C(=O)C2=O)C1=O
[3]
  IC50: 37.5 µM (active)
[4]
  IC50: 11.6 µM (active)

## O=C(Nc1cccc(C(F)(F)F)c1)c1cccc(NS(=O)(=O)c2ccc(O)c(C(=O)O)c2)c1
Caspase-6
  AC50: 40.3 µM (active)

## CCc1nc(N)nc(N)c1-c1ccc(Cl)c(N=[N+]=[N-])c1
[7]
  IC50: 24.1 µM (inactive)
[8]
  IC50: 13.4 µM (active)
